Reference: patent publication US12396977B2, “Composition for treating degenerative brain diseases, containing 2-pentylfuran as active ingredient” (DAEGU GYEONGBUK INSTITUTE OF SCIENCE AND TECHNOLOGY, priority 2019, dated 2025)
Each block holds one compound with its values, some of them ahead of it.

Columns and labels:
Olfr110 = biological target: T1, Olfr110 (Mus musculus, UniProt A2RT31); assay: Luciferase assay in Hana3A cells, Olfr110; assay type: cell-based; conditions: for reactivity of Olfr110 (relative luciferase activity): Hana3A cells
T1 construct: Full-length odorant receptor genes from mouse and human genomic DNA were amplified using appropriate primers; Lucy (N); Flag (N); Rho (N); expressed in transfected cells; host or cells: Hana3A cells, co-transfected with RTP1S, pCRELuc and pRL-SV40
T1 sequence (A2RT31 1-317): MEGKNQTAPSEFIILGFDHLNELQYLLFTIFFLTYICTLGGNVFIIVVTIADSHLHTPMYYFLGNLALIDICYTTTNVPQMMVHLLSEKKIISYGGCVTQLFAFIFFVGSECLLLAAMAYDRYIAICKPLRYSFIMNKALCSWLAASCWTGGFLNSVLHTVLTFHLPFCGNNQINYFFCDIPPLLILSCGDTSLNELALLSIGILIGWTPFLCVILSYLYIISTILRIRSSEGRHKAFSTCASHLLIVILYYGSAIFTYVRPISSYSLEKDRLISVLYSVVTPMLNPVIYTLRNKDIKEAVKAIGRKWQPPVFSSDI
Method: (§1) Next, Hana3A cells were transfected with RTP1S, and their location and presence on the cell membrane were confirmed as previously described (Behrens et al., 2009; Zhuang and Matsunami, 2008). Such transfection was performed using Lipofectamine 2000 (#11668-019; Thermo Fisher Scientific) according to the manufacturer's instructions. More specifically, the transfected cells were grown on a coverslip (#0101050; Marienfeld) coated with poly D lysine (10 μg/ml; #P7280; Sigma Aldrich). Next, the cells were washed with a warm PBS solution and cooled with ice for 30 minutes to block endocytosis. […] The cells were then incubated with normal horse serum (#008-000-121; Jackson ImmunoResearch) at room temperature for 1 hour. […] After being washed with PBS, the cells were treated with a Cy3-conjugated donkey anti-mouse antibody (1:1,000; #715-165-150; Jackson ImmunoResearch), an Alexa488-conjugated donkey anti-mouse antibody (1:1,000; #715-545-150; Jackson ImmunoResearch), or a Cy3-conjugated donkey anti-rabbit antibody (1:1,000; #711-165-152; Jackson ImmunoResearch) at room temperature for 1 hour. The cells were mounted with a Vectashield fluorescent mounting medium containing DAPI (#H-1200; Vector Laboratories). The expression of heterologous odorant receptors was analyzed with a confocal laser scanning microscope LSM700 and ZEN software (Zeiss).
(§2) The Dual-Glo luciferase assay system (#E2940; Promega) was used for odorant receptor ligand screening. More specifically, Hana3A cells were streaked and spread on a white polystyrene 96-well plate (#353296; BD Biosciences) one day before transfection. pCRELuc (1 μg; #219076; Agilent Technologies), pRL-SV40 (1 μg; #E2231; Promega), RTP1S (1 μg), and OR (6 μg; or Mock) vectors were transfected for 24 hours in each plate. Each plate was analyzed using Lipofectamine 2000 (#11668-019; Thermo Fisher Scientific) according to the manufacturer's protocol. Transfected cells were stimulated in CD293 medium (#11913-019; Thermo Fisher Scientific) at 37° C. for 4 hours using diluted odorants at various concentrations. The activity of luciferase was normalized by the activity of Renilla luciferase. The amount of light emitted was measured using a SpectraMax L microplate reader (Molecular Devices).

Olfr111 = assay: Luciferase assay in Hana3A cells, Olfr111; assay type: cell-based, mouse; conditions: for reactivity of Olfr111 (relative luciferase activity): Hana3A cells
Method: as §1, §2

primary microglia [1] = assay: Active oxygen (ROS) production in primary microglia; assay type: cell-based, mouse; conditions: for ROS (active oxygen) generation induced by 2-PF after inhibitor pretreatment: then 2-PF
Method: Superoxide concentrations were calculated by measuring the degree of decrease in cytochrome c using a VersaMax microplate reader (Babior et al., 1973). Microglia were cultured on a 96-well plate at a concentration of 1.0×10^5 cells/well, and the microglia were activated by a 10 μM ATP solution containing 2-pentylfuran and cytochrome c, or a solution of Sup mixed with cytochalasin B (5 μM; #C66762; Sigma Aldrich). The resulting ROS concentration was measured by changes in light absorption at 550 nm at intervals of 1 minute for 25 minutes.
Active oxygen levels were measured using 2′,7′-dichlorodihydrofluorescein diacetate (DCF-DA, #D6883; Sigma Aldrich) using a method that had undergone minor modifications from the existing method. (Bae et al., 2001). More specifically, the primary microglia were treated with 10 μM DCF-DA in a 24-well plate (5.0×10^5 cells/well) […] at a temperature of 37° C. for 30 minutes. One plate was treated with 2-PF and one was not. Cells in each well were measured by a flow cytometer (FACS Accuri™ C6; BD Biosciences). MFI was measured in the same manner as described above.

primary microglia [2] = assay: Cytokine mRNA (qRT-PCR) and protein (ELISA) in microglia; assay type: cell-based, mouse; conditions: then 2-PF
Method: In the present example, microglia or astrocytes were primarily extracted from the cerebral cortex of E18.5 mouse embryos (Tamashiro et al., 2012) and then cultured as in Example 1. More specifically, the cortex of mouse embryos was collected and then stored in a cold supernatant (#14170-112; Thermo Fisher Scientific) and pretreated at 37° C. in a 0.25% trypsin solution (#15090-046; Thermo Fisher Scientific) for 20 minutes. Then, cells were plated in a minimal nutrient medium supplemented with 10% FBS (#SH30919.03; Hyclone), 2 mM L-glutamine (#25030-081; Thermo Fisher Scientific), 0.04% glucose (#G7021; Sigma Aldrich), and 1% penicillin/streptomycin (#15140-122; Thermo Fisher Scientific), and then filtered using a 40 μm strainer (#352340; Thermo Fisher Scientific). Microglia were plated at a density of 1.2×10^7 cells in a T75 flask coated with poly-D-lysine (#P7280; Sigma Aldrich). After 2 hours, the mixture was transferred to a Dulbecco's modified eagle medium (DMEM; #SH30243.01; Hyclone), and the medium was replaced every 3 days for 2 weeks. In order to separate the microglia from this mixed solution, first, the mixed solution was shaken at 37° C. at 150 rpm for 2 hours, then the mixed solution containing microglia was separately extracted from the top and transferred, and then the microglia were isolated by centrifugation at 1300 rpm at room temperature for 5 minutes. The isolated microglia were transferred to a culture medium. After the microglia were transferred, the microglia were completely removed by shaking the remaining mixed solution at 160 rpm for 1 day for culturing. Then, astrocytes were isolated by treatment with 0.25% trypsin and again cultured in a T75 flask for 4 days for collection. The purity of the collected microglia and astrocytes was evaluated by qRT-PCR analysis and by immunocytochemistry using Iba-1 and Gfap, which are a marker gene and a protein, respectively.
For the measurement of mRNA, RNA was isolated from red blood cells, microglia, astrocytes, Hana3A cells, or cerebral cortical cells using the MagNa Lyser (Roche Molecular Diagnostics) using TRIzol reagent (Invitrogen, Carlsbad, CA.) according to the manufacturer's protocol. Then, cDNA was generated through reverse transcription using the isolated mRNA (using PrimeScript™ 1st str and cDNA Synthesis kit—#6110; Takara Bio Inc). This process was quantitatively measured in real time through quantitative real-time-PCR (using LightCycler® 480 SYBR Green I Master). The measured values were calculated using the 2-ΔΔCt method.
The expression levels of Tnf, il6, and Il1b cytokines secreted from microglia were measured according to the manufacturer's protocol. More specifically, the expression levels were measured by ELISA 24 hours after treatment with 2-PF or a cell supernatant. […]

primary microglia [3] = assay: Western blot of phosphorylated signalling proteins in primary microglia; assay type: cell-based, mouse; conditions: inhibitor pre-culture, then 2-PF
Method: Cells and tissues were prepared using the T-PER® reagent (#78510; Thermo Fisher Scientific) with protease inhibitors (#04-693-116-001; Roche Molecular Diagnostics), DMSF (Sigma-Aldrich) and lysed using the MagNA Lyser (Roche Molecular Diagnostics). A total protein extract was quantified by the Bradford assay. The sample was dissolved in 7.5% SDS-PAGE or 4 to 20% gradient mini-PROTEIN TGX Precast Gels (#456-1064; Bio-Rad Laboratories), and then blotted onto nitrocellulose membranes (#10600002; GE Healthcare). The membrane was then blocked in 5% skimmed milk powder, TBST, 0.1% TWEEN® 20 (#P9416; Sigma-Aldrich) and Tris-buffered saline for 1 hour, and then incubated with primary antibodies at 4° C. overnight. The antibodies are as follows: Olfr110 (36 kDa; 1:1,000; #ab177327; Abcam), anti rhodopsin (39 kDa; 1:1,000; #MABN15; Millipore), CREB (43 kDa; 1:1,000; #9197; Cell Signaling Technology), phospho-CREB (43 kDa; 1:1,000; #9198; Cell Signaling Technology), ERK (44 kDa; 1:1,000; #sc094; Santa Cruz), phospho-ERK (42, 44 kDa; 1:1,000; #sc-7383; Santa Cruz), phospho-Akt (60 kDa; 1:500; sc-293125; Santa Cruz), phospho-JNK (46, 54 kDa; 1:500; sc-6254; Santa Cruz), phosphor-p38 (38 kDa; 1:1,000; sc-7973; Santa Cruz), or beta-Actin (45 kDa; 1:10,000; #4967; Cell Signaling Technology). Furthermore, an isotype-matched horseradish peroxidase-conjugated secondary antibody was used at 1:100,000 with anti-rabbit in TBST (#711-035-152; Jackson ImmunoResearch) and 1:40,000 with anti-mouse (#715-035-150; Jackson ImmunoResearch) at room temperature for 2 hours. As an immunoreactive protein band, SuperSignal™ West Pico Chemiluminescent Substrate (#34080; Thermo Fisher Scientific) was used.

[4] = test system: Olfr920, Olfr1417, and Olfr99; conditions: Hana3A cells; MOCK also responded
Method: Next, Hana3A cells were transfected with RTP1S, and their location and presence on the cell membrane were confirmed as previously described (Behrens et al., 2009; Zhuang and Matsunami, 2008). Such transfection was performed using Lipofectamine 2000 (#11668-019; Thermo Fisher Scientific) according to the manufacturer's instructions. More specifically, the transfected cells were grown on a coverslip (#0101050; Marienfeld) coated with poly D lysine (10 μg/ml; #P7280; Sigma Aldrich). Next, the cells were washed with a warm PBS solution and cooled with ice for 30 minutes to block endocytosis. […] The cells were then incubated with normal horse serum (#008-000-121; Jackson ImmunoResearch) at room temperature for 1 hour. The resulting cells were incubated with mouse anti rhodopsin (anti-Rho; 1:1,000; #MABN15; Millipore) or rabbit anti Olfr110 (#ab177327; Abcam) at 4° C. overnight. […] The expression of heterologous odorant receptors was analyzed with a confocal laser scanning microscope LSM700 and ZEN software (Zeiss). […] Each plate was analyzed using Lipofectamine 2000 (#11668-019; Thermo Fisher Scientific) according to the manufacturer's protocol. […] The amount of light emitted was measured using a SpectraMax L microplate reader (Molecular Devices).

SMILES: Cc1ccoc1C [2,3-dimethylfuran]
binding to Olfr110 (Olfr110): do not bind
binding to Olfr111 (Olfr111): do not bind

binding to Olfr110 (Olfr110): do not bind
mode of action at Olfr110 (Olfr110): competitive inhibitor (antagonist)
SMILES: CCc1ccco1 [2-EF, 2-ethylfuran]
binding to Olfr111 (Olfr111): do not bind
active oxygen produced by Sup MOI of 100 (primary microglia [1]; 2-EF pretreated at 0, 100, 300, 500 μM): decreased as the concentration of 2-EF increased
active oxygen produced by Sup MOI 5 plus 500 μM 2-PF (primary microglia [1]; 2-ethylfuran 0, 100, 300, 500 μM simultaneously): the higher the concentration of 2-EF added, the lower the concentration of active oxygen produced

reactivity of Olfr110 (relative luciferase activity) (Olfr110): showed reactivity
SMILES: CCCCc1ccco1 [2-butylfuran]
reactivity of Olfr111 (relative luciferase activity) (Olfr111): showed reactivity

binding to Olfr110 (Olfr110): do not bind
SMILES: CCCCCCCc1ccco1 [2-heptylfuran]
binding to Olfr111 (Olfr111): do not bind

binding to Olfr110 (Olfr110): do not bind
reactivity of Olfr110 (relative luciferase activity) (Olfr110): showed reactivity
SMILES: CCCCCCc1ccco1 [2-hexylfuran]
binding to Olfr111 (Olfr111): do not bind
reactivity of Olfr111 (relative luciferase activity) (Olfr111): showed reactivity

binding to Olfr110 (Olfr110): do not bind
SMILES: Cc1ccco1 [2-methylfuran]
binding to Olfr111 (Olfr111): do not bind

reactivity of Olfr110 (relative luciferase activity) (Olfr110): showed reactivity
SMILES: CCCc1ccco1 [2-propylfuran]
reactivity of Olfr111 (relative luciferase activity) (Olfr111): showed reactivity

reactivity of Olfr110 (relative luciferase activity) (Olfr110): showed reactivity
SMILES: CC(C)(C)c1ccco1 [2-t-butylfuran]
reactivity of Olfr111 (relative luciferase activity) (Olfr111): showed reactivity

SMILES: O=S(=O)(NCCNC/C=C/c1ccc(Br)cc1)c1cccc2cnccc12 [H-89]
Tnf and Il6 cytokine levels induced by 2-PF after inhibitor pretreatment (primary microglia [2]): great decrease

SMILES: Nc1ncnc2c1ncn2C1CCCO1 (stereo not drawn) [SQ22536]
Tnf and Il6 cytokine levels induced by 2-PF after inhibitor pretreatment (primary microglia [2]): great decrease
CREB and ERK phosphorylation after inhibitor pre-culture and 2-PF (primary microglia [3]): greatly decreased

SMILES: COc1ccc2c(c1)CC[C@@H]1[C@@H]2CC[C@]2(C)[C@@H](NCCCCCCN3C(=O)C=CC3=O)CC[C@@H]12 [U73122]
Tnf and Il6 cytokine levels induced by 2-PF after inhibitor pretreatment (primary microglia [2]): relatively less decrease
ROS (active oxygen) generation induced by 2-PF after inhibitor pretreatment (primary microglia [1]): completely inhibited

reactivity of the remaining three receptors (luciferase) [4]: non-specific reaction
SMILES: CCO [ethanol]

SMILES: O=C1OC2(c3ccccc31)c1ccc(O)c(O)c1Oc1c2ccc(O)c1O [gallein]
ROS (active oxygen) generation induced by 2-PF after inhibitor pretreatment (primary microglia [1]): similarly inhibited

SMILES: COc1cccc(-c2cc(=O)c3ccccc3o2)c1N [pd98059]
Tnf and Il6 cytokine levels induced by 2-PF after inhibitor pretreatment (primary microglia [2]): relatively less decrease
CREB and ERK phosphorylation after inhibitor pre-culture and 2-PF (primary microglia [3]): greatly decreased
